Results on 1 molecule are retold here after patent publication US20120225852A1, “USE OF STEROID COMPOUNDS” (priority 2009, published 2012).

The test system of experiment [1] is Draining lymph node cells from mice induced to develop EAE. In words: Ex vivo response of draining lymph node cells to MOG35-55, mice treated from EAE induction. It is filed as in vivo, C57BL/6 mice. The note with it: treatment from EAE induction. From the text: Acute EAE was induced in C57BL/6 mice by immunizing them against the pathogenic myelin oligodendrocyte glycoprotein (MOG) peptide (amino acids 35-55). […] Mice were monitored daily in a blinded fashion for clinical symptoms (paralysis). Tissues (brain, spinal cord, DLNs) were collected in order to perform histological evaluation (staining with H&E on brain and spinal cord sections) and ex vivo cultures for measurement of T cell responses and cytokine release.
Also tested were the proliferative response and cytokine secretion of lymphoid cells (T cells) to MOG35-55 peptide from the mice that had been induced to develop EAE. […] In addition, the secretion of the inflammatory cytokine IL-17 was increased (FIG. 9d), but its absolute increase was extremely low in comparison to the IFN-γ increase.

In another experiment the test system is EAE. In words: EAE after cessation of 15 days of treatment, 45 additional days of monitoring. It is filed as in vivo, C57BL/6 mice. The text has this: The mice continued to be monitored daily for clinical signs of EAE for 45 additional days thereafter.
In another experiment the test system is Naive CD4+ T cells. In words: Naive CD4+ T cells under Th17 cell polarizing conditions. It is filed as cell-based.

For `C[C@]12CC[C@H](O)CC1=CC[C@@H]1[C@@H]2CC[C@]2(C)C(=O)CC[C@@H]12` [DHEA, dehydroepiandrosterone], the pathogenic immune response entry in experiment [1] (overall conclusion) is recorded as “significantly suppressed”. For the same molecule, in experiment [1] (FIG. 9a), the “proliferation to MOG35-55 peptide” value is recorded as “significantly decreased”. In experiment [1] (FIG. 9b), the “amounts of IFN-γ produced” value is “substantially increased”. The “amounts of IL-10 produced” value in experiment [1] (FIG. 9c) was “substantially increased”. Also, the “secretion of IL-17” value in experiment [1] (absolute increase extremely low compared to IFN-γ, FIG. 9d) is reported as “increased”. Further, the “protection from EAE development after cessation of treatment” value in the experiment with EAE (treated 15 days from around day 13, monitored 45 additional days, FIGS. 34 and 35) is listed as “remained protected”. Also, the “disease score after cessation of treatment” value in the experiment with EAE (treated 15 days, monitored 45 additional days, vs control mice) is given as “remained unchanged”. Also, in the experiment on Naive CD4+ T cells (among Th17 differentiating cells, 4 days, FIG. 37), the “number of CD4+ IL-10-secreting T cells” value is recorded as “significant increase”. In addition, in the experiment with Naive CD4+ T cells (and rIL-6, 4 days, vs RPMI, FIG. 36), the “number of CD4+ IL-17-secreting T cells” value is given as “increase”.
